System: 242566-281-R-J2-PDC complex spheroid viability
Experiment: Anticancer human tumor 242566-281-R-J2-PDC patient-derived pancreatic carcinoma cell line growth inhibition [RAS]
Conditions: for IC50: curve of first compound; for viability, T/C: stronger effect = lower value
Excerpt: RAS pathway inhibitors in Combinations in Complex Spheroids
A high-throughput screen of multi-cell type tumor spheroids was designed to identify active combinations of RAS pathway inhibitors and targeted small molecules. Complex spheroids include a stromal component modeled by human endothelial cells (HUVEC) and fibroblasts modeled by human mesenchymal stem cells (MSCs). The concentration ranges selected for each drug and investigational agent were based upon clinically achievable concentrations if the clinical Cmax of the agent was known.
Compounds. The drugs and investigational agents: abemaciclib (NSC768073), cobimetinib (NSC768068), divarasib (GDC6063, NSC841802), docetaxel (NSC628503), GDC-1971 (RLY-1971, NSC841576), gemcitabine (NSC613327), inavolisib (NSC800729), ipatasertib (NSC767898), KB-0742 (NSC834161), MRTX-1133 (NSC836407), osimertinib (NSC779217), RMC-4630 (NSC839698), RMC-6236 (NSC851965), RMC-6291 (NSC852671), Ro-3306 (NSC812927), sapanisertib (NSC764658), SN-38 (NSC673596), staurosporine (NSC755774), SY5609 (NSC837396), and tovorafenib (DAY101, NSC766906), were obtained from the National Cancer Institute (NCI) Developmental Therapeutics Program Chemical Repository. The FDA-approved anticancer drug set is available from the NCI Developmental Therapeutics Program. […] The stock solutions were prepared in dimethyl sulfoxide (DMSO, Sigma-Aldrich, St. Louis, MO, cat. D2650) at 800-fold the tested concentration and stored at -70 degrees C prior to their use. All drugs and investigational agents were tested over a range starting from a high concentration at or near the clinical Cmax and decreasing in half-log increments. If the clinical Cmax for an agent had not been determined, the highest concentration tested was 10 microM.
Cell Culture. All cells were maintained in an incubator at 37 degrees C and 5% CO2 with 95% humidity. The PDC lines were cultured according to standard operating procedures established by the NCI PDMR. All PDCs were thawed and cultured in Matrigel-coated flasks prepared with a working solution of 1X Ham's F-12 nutrient mix, without supplementation (Invitrogen, Waltham, MA, cat. 11765054), 100 U/mL penicillin-streptomycin (Invitrogen, cat. 15140122), and 2.5% Matrigel (Corning Inc., Corning, NY, cat. 354248) for the first three passages. The 362531-283-R-J2-PDC and 782815-120-R-J1-PDC lines were cultured in 6C/Colon 1B media, which includes advanced DMEM/F-12 (Thermo Fisher Scientific, cat. 12634028), 10 mM HEPES (Thermo Fisher Scientific, cat. 15630080), 1X GlutaMAX supplement (Thermo Fisher Scientific, cat. 35050061), 0.1 mg/mL primocin (InvivoGen, San Diego, CA, cat. ant-pm-2), 10% defined fetal bovine serum, heat inactivated (HyClone Laboratories Inc., Logan, UT, cat. SH30070.03HI), 50% L-WRN conditioned media (ATCC, cat. CRL-3276), 1.25 mM N-Acetyl-L-cysteine (Sigma-Aldrich, cat. A9165), 10 mM nicotinamide (Sigma-Aldrich, cat. N0636), 1X B-27 supplement (Thermo Fisher Scientific, cat. 17504044), 1X N-2 supplement (Thermo Fisher Scientific, cat. 17502048), 50 ng/mL human EGF (Thermo Fisher Scientific, cat. PHG0311), and 10 microM Y-27632 dihydrochloride (Tocris Bioscience, cat. 1254). The K12877-001-R-J1-PDC line was cultured in 6I media, which includes all 6C/Colon 1B media plus 10 ng/mL human FGF-10 (PeproTech, cat. 100-26), 1 ng/mL human FGF-2 (PeproTech, cat. 100-18B), 1 µM prostaglandin E2 (Tocris Bioscience, cat. 2296), […] hydrocortisone (Sigma-Aldrich, cat. H4001), and […] bovine insulin (Sigma-Aldrich, cat. I6634). The K86415-001-R-J1-PDC line was cultured in 6D media, which includes all 6C/Colon 1B media components minus the L-WRN conditioned media. The 485176-168-R4-J1-PDC was cultured in PANC media, which includes all 6C/Colon 1B media plus 100 ng/mL human FGF-10 (PeproTech, cat. 100-26), 500 nM SB-431542 (Selleckchem, cat. S1067), and 10 nM gastrin (Tocris Bioscience, cat. 3006). […]

[1] = second compound 0.0316 µM, first compound 0.0316 µM
[2] = second compound 0.0316 µM, first compound 0.1 µM
[3] = second compound 0.0316 µM, first compound 0.316 µM
[4] = second compound 0.0316 µM, first compound 1 µM
[5] = second compound 0.0316 µM, first compound 3.16 µM
[6] = second compound 0.0316 µM, first compound 10 µM
[7] = second compound 0.1 µM, first compound 0.0316 µM
[8] = second compound 0.1 µM, first compound 0.1 µM
[9] = second compound 0.1 µM, first compound 0.316 µM
[10] = second compound 0.1 µM, first compound 1 µM
[11] = second compound 0.1 µM, first compound 3.16 µM
[12] = second compound 0.1 µM, first compound 10 µM
[13] = second compound 0.316 µM, first compound 0.0316 µM
[14] = second compound 0.316 µM, first compound 0.1 µM
[15] = second compound 0.316 µM, first compound 0.316 µM
[16] = second compound 0.316 µM, first compound 1 µM
[17] = second compound 0.316 µM, first compound 3.16 µM
[18] = second compound 0.316 µM, first compound 10 µM
[19] = second compound 1 µM, first compound 0.0316 µM
[20] = second compound 1 µM, first compound 0.1 µM
[21] = second compound 1 µM, first compound 0.316 µM
[22] = second compound 1 µM, first compound 1 µM
[23] = second compound 1 µM, first compound 3.16 µM
[24] = second compound 1 µM, first compound 10 µM
[25] = second compound 3.16 µM, first compound 0.0316 µM
[26] = second compound 3.16 µM, first compound 0.1 µM
[27] = second compound 3.16 µM, first compound 0.316 µM
[28] = second compound 3.16 µM, first compound 1 µM
[29] = second compound 3.16 µM, first compound 3.16 µM
[30] = second compound 3.16 µM, first compound 10 µM
[31] = second compound 10 µM, first compound 0.0316 µM
[32] = second compound 10 µM, first compound 0.1 µM
[33] = second compound 10 µM, first compound 0.316 µM
[34] = second compound 10 µM, first compound 1 µM
[35] = second compound 10 µM, first compound 3.16 µM
[36] = second compound 10 µM, first compound 10 µM
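Note: spheroids exposed to compound for 7 days before readout.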
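Throughout, for viability, T/C: 100% = DMSO vehicle control wells.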

SMILES: CC1(O)CCCC1n1c(=O)c(C(F)F)cc2cnc(NC3CCN(S(C)(=O)=O)CC3)nc21 (stereo unspecified) + C#Cc1c(F)ccc2cc(O)cc(-c3ncc4c(N5CC6CCC(C5)N6)nc(OCC56CCCN5CC(F)C6)nc4c3F)c12
- IC50 (second compound 0.0316 µM): > 10000 nM
- IC50 (second compound 0.1 µM): 8850 nM
- IC50 (second compound 0.316 µM): 6910 nM
- IC50 (second compound 1 µM): 4970 nM
- IC50 (second compound 3.16 µM): 3870 nM
- IC50 (second compound 10 µM): 4080 nM
- viability, T/C [1]: 90.6%
- viability, T/C [2]: 113%
- viability, T/C [3]: 94.6%
- viability, T/C [4]: 81.5%
- viability, T/C [5]: 108%
- viability, T/C [6]: 51.5%
- viability, T/C [7]: 80.4%
- viability, T/C [8]: 83.9%
- viability, T/C [9]: 78.7%
- viability, T/C [10]: 88%
- viability, T/C [11]: 97.6%
- viability, T/C [12]: 45.7%
- viability, T/C [13]: 69.3%
- viability, T/C [14]: 75.5%
- viability, T/C [15]: 60.7%
- viability, T/C [16]: 69.8%
- viability, T/C [17]: 94.6%
- viability, T/C [18]: 38.9%
- viability, T/C [19]: 66.3%
- viability, T/C [20]: 63.2%
- viability, T/C [21]: 65.4%
- viability, T/C [22]: 56.6%
- viability, T/C [23]: 70.5%
- viability, T/C [24]: 27.5%
- viability, T/C [25]: 51%
- viability, T/C [26]: 54.6%
- viability, T/C [27]: 48%
- viability, T/C [28]: 49.1%
- viability, T/C [29]: 69%
- viability, T/C [30]: 29.7%
- viability, T/C [31]: 52.3%
- viability, T/C [32]: 57.2%
- viability, T/C [33]: 61%
- viability, T/C [34]: 56%
- viability, T/C [35]: 66.8%
- viability, T/C [36]: 19.5%

SMILES: CCC(CC)c1cc(NC2CCC(N)C2)n2nccc2n1 (stereo unspecified) + C#Cc1c(F)ccc2cc(O)cc(-c3ncc4c(N5CC6CCC(C5)N6)nc(OCC56CCCN5CC(F)C6)nc4c3F)c12
- IC50 (second compound 0.0316 µM): 2610 nM
- IC50 (second compound 0.1 µM): 1890 nM
- IC50 (second compound 0.316 µM): 1450 nM
- IC50 (second compound 1 µM): 893 nM
- IC50 (second compound 3.16 µM): 1220 nM
- IC50 (second compound 10 µM): 1170 nM
- viability, T/C [1]: 85.9%
- viability, T/C [2]: 109%
- viability, T/C [3]: 107%
- viability, T/C [4]: 88.9%
- viability, T/C [5]: 42.2%
- viability, T/C [6]: 1.05%
- viability, T/C [7]: 79.1%
- viability, T/C [8]: 92.1%
- viability, T/C [9]: 84.7%
- viability, T/C [10]: 69.3%
- viability, T/C [11]: 33.9%
- viability, T/C [12]: 0.89%
- viability, T/C [13]: 83.6%
- viability, T/C [14]: 85.5%
- viability, T/C [15]: 73.3%
- viability, T/C [16]: 63.4%
- viability, T/C [17]: 26.3%
- viability, T/C [18]: 0.98%
- viability, T/C [19]: 68.2%
- viability, T/C [20]: 67.6%
- viability, T/C [21]: 58.5%
- viability, T/C [22]: 50.6%
- viability, T/C [23]: 14.8%
- viability, T/C [24]: 0.85%
- viability, T/C [25]: 58%
- viability, T/C [26]: 60.2%
- viability, T/C [27]: 56.1%
- viability, T/C [28]: 58.6%
- viability, T/C [29]: 11.1%
- viability, T/C [30]: 0.86%
- viability, T/C [31]: 59.8%
- viability, T/C [32]: 54.8%
- viability, T/C [33]: 52.3%
- viability, T/C [34]: 58.1%
- viability, T/C [35]: 11.5%
- viability, T/C [36]: 0.55%

SMILES: CCN1CCN(Cc2ccc(Nc3ncc(F)c(-c4cc(F)c5nc(C)n(C(C)C)c5c4)n3)nc2)CC1 + C#Cc1c(F)ccc2cc(O)cc(-c3ncc4c(N5CC6CCC(C5)N6)nc(OCC56CCCN5CC(F)C6)nc4c3F)c12
- IC50 (second compound 0.0316 µM): > 1000 nM
- IC50 (second compound 0.1 µM): > 1000 nM
- IC50 (second compound 0.316 µM): > 1000 nM
- IC50 (second compound 1 µM): 3.16 nM
- IC50 (second compound 3.16 µM): < 3.16 nM
- IC50 (second compound 10 µM): < 3.16 nM
- viability, T/C (second compound 0.0316 µM, first compound 0.00316 µM): 110%
- viability, T/C (second compound 0.0316 µM, first compound 0.01 µM): 108%
- viability, T/C [1]: 85%
- viability, T/C [2]: 61.7%
- viability, T/C [3]: 84.9%
- viability, T/C [4]: 99%
- viability, T/C (second compound 0.1 µM, first compound 0.00316 µM): 95%
- viability, T/C (second compound 0.1 µM, first compound 0.01 µM): 81.1%
- viability, T/C [7]: 77.5%
- viability, T/C [8]: 56.5%
- viability, T/C [9]: 76%
- viability, T/C [10]: 85.2%
- viability, T/C (second compound 0.316 µM, first compound 0.00316 µM): 79.9%
- viability, T/C (second compound 0.316 µM, first compound 0.01 µM): 72%
- viability, T/C [13]: 46.7%
- viability, T/C [14]: 51.9%
- viability, T/C [15]: 72%
- viability, T/C [16]: 87.3%
- viability, T/C (second compound 1 µM, first compound 0.00316 µM): 64.5%
- viability, T/C (second compound 1 µM, first compound 0.01 µM): 62.1%
- viability, T/C [19]: 50.5%
- viability, T/C [20]: 43.5%
- viability, T/C [21]: 63.3%
- viability, T/C [22]: 77.1%
- viability, T/C (second compound 3.16 µM, first compound 0.00316 µM): 56.6%
- viability, T/C (second compound 3.16 µM, first compound 0.01 µM): 47.2%
- viability, T/C [25]: 31.6%
- viability, T/C [26]: 37.3%
- viability, T/C [27]: 58.5%
- viability, T/C [28]: 72.4%
- viability, T/C (second compound 10 µM, first compound 0.00316 µM): 54.3%
- viability, T/C (second compound 10 µM, first compound 0.01 µM): 48.2%
- viability, T/C [31]: 40.1%
- viability, T/C [32]: 37.6%
- viability, T/C [33]: 51.7%
- viability, T/C [34]: 63.1%

From PubChem BioAssay AID2060910 (Molecular Pharmacology Branch, DTP, NCI, 2025)
